Measurements reported in patent US12503475B2 (Centessa Pharmaceuticals (UK) Limited, priority 2020, dated 2025).
Where two headings read alike, the source gives them in different places.

Biological target: T1, human orexin type 2 receptor (hOX2R) (Homo sapiens, UniProt O43614)
T1 construct: expressed in transfected cells
T1 sequence (O43614 1-444): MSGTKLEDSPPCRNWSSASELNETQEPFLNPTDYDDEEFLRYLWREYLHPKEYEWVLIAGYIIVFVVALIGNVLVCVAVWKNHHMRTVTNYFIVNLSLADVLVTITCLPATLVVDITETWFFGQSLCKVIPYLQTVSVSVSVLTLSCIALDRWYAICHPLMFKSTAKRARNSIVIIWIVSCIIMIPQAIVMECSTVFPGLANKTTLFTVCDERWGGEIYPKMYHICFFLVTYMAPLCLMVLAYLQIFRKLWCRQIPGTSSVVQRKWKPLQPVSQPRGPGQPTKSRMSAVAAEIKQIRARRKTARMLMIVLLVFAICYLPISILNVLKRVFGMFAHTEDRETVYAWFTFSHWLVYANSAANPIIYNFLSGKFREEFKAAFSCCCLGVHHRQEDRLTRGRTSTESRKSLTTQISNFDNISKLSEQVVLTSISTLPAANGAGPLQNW
Test: Measurement of orexin type 2 receptor agonist activity (FLIPR calcium fluorescence)
Assay type: cell-based
Settings: for EC50: read-out: hOx2 pEC50 (converted); for Emax: CHO, read-out: hOx2 Emax (%)
Method in brief: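 Agonism was read as fluorescence in cells stably expressing human OX2R. E. is the response at 10 μM relative to orexin A as full agonist (100%).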

[1] = CHO cells expressing hOX2R, FLIPR calcium fluorescence

Row | Compound | EC50 [1] | Emax [1] | Emax | hOx2 Emax (%) [1] | hOx2 pEC50 [1]
1 | CC(C)(O)C(=O)N1CC2(CC2)[C@H](NS(=O)(=O)CF)[C@@H]1Cc1cc(F)cc(-c2cccc(F)c2)c1F [Compound 210, 1-fluoro-N-((6S,7S)-5-(2-hydroxy-2-methylpropanoyl)-6-((2,3′,5-trifluoro-[1,1′-biphenyl]-3-yl)methyl)-5-azaspiro[2.4]heptan-7-yl)methanesulfonamide] | 10 to 100 nM | 90 to 100% |  |  | 
2 | CS(=O)(=O)N[C@@H]1[C@H](Cc2cccc(-c3ccccc3)c2)N(C(=O)[C@H](O)C(F)(F)F)CC12CC2 [Compound 299, N-((6S,7S)-6-([1,1′-biphenyl]-3-ylmethyl)-5-((S)-3,3,3-trifluoro-2-hydroxypropanoyl)-5-azaspiro[2.4]heptan-7-yl)methanesulfonamide] | 10 to 100 nM | 90 to 100% |  |  | 
3 | C[C@@]1(C(=O)N2CC3(CC3)[C@H](NS(=O)(=O)CF)[C@@H]2Cc2cccc(-c3ccccc3)c2F)CCO1 [Compound 203, 1-fluoro-N-((6S,7S)-6-((2-fluoro-[1,1′-biphenyl]-3-yl)methyl)-5-((S)-2-methyloxetane-2-carbonyl)-5-azaspiro[2.4]heptan-7-yl)methanesulfonamide] | 1 to 10 nM | 90 to 100% |  |  | 
4 | O=C([C@H]1CCO1)N1CC2(CC2)[C@H](NS(=O)(=O)CF)[C@@H]1Cc1cc(F)cc(-c2cccc(F)c2)c1F [Compound 123, 1-fluoro-N-((6S,7S)-5-((R)-oxetane-2-carbonyl)-6-((2,3′,5-trifluoro-[1,1′-biphenyl]-3-yl)methyl)-5-azaspiro[2.4]heptan-7-yl)methanesulfonamide] | 0.0794 to 1 nM | 90 to 100% |  |  | 
5 | O=C([C@H]1CCO1)N1CC2(CC2)[C@H](NS(=O)(=O)C(F)F)[C@@H]1Cc1cccc(-c2ccccc2)c1 [Compound 115, N-((6S,7S)-6-([1,1′-biphenyl]-3-ylmethyl)-5-((R)-oxetane-2-carbonyl)-5-azaspiro[2.4]heptan-7-yl)-1,1-difluoromethanesulfonamide] | 1 to 10 nM |  | 90 to 100% |  | 
6 | O=C([C@H]1CCO1)N1CC2(CC2)[C@H](NS(=O)(=O)C(F)F)[C@@H]1Cc1cccc(-c2cccc(F)c2F)c1F [Compound 172] | 1 to 10 nM | 90 to 100% |  |  | 
7 | O=C([C@H]1CCO1)N1CC2(CC2)[C@H](NS(=O)(=O)C2COC2)[C@@H]1Cc1cccc(-c2ccccc2)c1 [Compound 77, N-((6S,7S)-6-([1,1′-biphenyl]-3-ylmethyl)-5-((R)-oxetane-2-carbonyl)-5-azaspiro[2.4]heptan-7-yl)oxetane-3-sulfonamide] | 10 to 100 nM | 90 to 100% |  |  | 
8 | CCNC(=O)N1CC2(CC2)[C@H](NS(=O)(=O)CC)[C@@H]1Cc1cccc(-c2ccccc2)c1F [Compound 89] |  |  |  | A (Emax ranging between 90 and 100) | ***** (pEC50 ranging between 9.0 and 10.1)
9 | O=C([C@H]1CCO1)N1CC2(CC2)[C@H](NS(=O)(=O)C(F)F)[C@@H]1Cc1cccc(-c2ccccc2F)c1F [Compound 163, N-((6S,7S)-6-((2,2′-difluoro-[1,1′-biphenyl]-3-yl)methyl)-5-((R)-oxetane-2-carbonyl)-5-azaspiro[2.4]heptan-7-yl)-1,1-difluoromethanesulfonamide] | 1 to 10 nM | 90 to 100% |  |  | 
10 | COCCNC(=O)N1CC2(CC2)[C@H](NS(C)(=O)=O)[C@@H]1Cc1cccc(-c2ccccc2)c1F (racemic) [Compound 306, 6-((2-fluoro-[1,1′-biphenyl]-3-yl)methyl)-N-(2-methoxyethyl)-7-(methylsulfonamido)-5-azaspiro[2.4]heptane-5-carboxamide] | 10 to 100 nM | 90 to 100% |  |  | 
11 | [2H]C([2H])([2H])N(C(=O)N1CC2(CC2)[C@H](NS(C)(=O)=O)[C@@H]1Cc1cc(F)cc(-c2ccccc2)c1F)C([2H])([2H])[2H] [Compound 355, (6S,7S)-6-((2,5-difluoro-[1,1′-biphenyl]-3-yl)methyl)-N,N-bis(methyl-d3)-7-(methylsulfonamido)-5-azaspiro[2.4]heptane-5-carboxamide] | 10 to 100 nM | 90 to 100% |  |  | 
12 | CS(=O)(=O)N[C@@H]1[C@H](Cc2cccc(-c3ccccc3)c2)N(C(=O)C2(C#N)CCO2)CC12CC2 (stereo partly drawn) [Compound 47, N-((6S,7S)-6-([1,1′-biphenyl]-3-ylmethyl)-5-(2-cyanooxetane-2-carbonyl)-5-azaspiro[2.4]heptan-7-yl)methanesulfonamide] | 10 to 100 nM | 90 to 100% |  |  | 
13 | CS(=O)(=O)NC1C(Cc2cccc(-c3ccccc3)c2F)N(C(=O)[C@H]2C[C@@H](F)C2)CC12CC2 (mixture of isomers) [Compound 91, N-(6-((2-fluoro-[1,1′-biphenyl]-3-yl)methyl)-5-((1s,3s)-3-fluorocyclobutane-1-carbonyl)-5-azaspiro[2.4]heptan-7-yl)methanesulfonamide] | 10 to 100 nM | 90 to 100% |  |  | 
14 | CC(F)(F)C(=O)N1CC2(CC2)[C@H](NS(C)(=O)=O)[C@@H]1Cc1cccc(-c2cccc(F)c2)c1F [Compound 294, N-((6S,7S)-6-((2,3'-difluoro-[1,1′-biphenyl]-3-yl)methyl)-5-(2,2-difluoropropanoyl)-5-azaspiro[2.4]heptan-7-yl)methanesulfonamide] | 10 to 100 nM | 80 to 90% |  |  | 
15 | O=C([C@H]1CCO1)N1CC2(CC2)[C@H](NS(=O)(=O)CF)[C@@H]1Cc1cc(F)cc(-c2cc(F)ccc2F)c1F [Compound 218, 1-fluoro-N-((6S,7S)-5-((R)-oxetane-2-carbonyl)-6-((2,2′,5,5′-tetrafluoro-[1,1′-biphenyl]-3-yl)methyl)-5-azaspiro[2.4]heptan-7-yl)methanesulfonamide] | 1 to 10 nM | 90 to 100% |  |  | 
16 | CC(C)C(=O)N1CC2(CC2)C(NS(C)(=O)=O)C1Cc1cccc(-c2ccccc2)c1 (racemic) [Compound 15, N-(6-([1,1′-biphenyl]-3-ylmethyl)-5-isobutyryl-5-azaspiro[2.4]heptan-7-yl)methanesulfonamide] | 10 to 100 nM | 90 to 100% |  |  | 
17 | CN(C)C(=O)N1CC2(CC2)[C@H](NS(C)(=O)=O)[C@@H]1Cc1cccc(-c2cc(F)cc(F)c2)c1 (racemic) [Compound 296, 6-((3′,5′-difluoro-[1,1′-biphenyl]-3-yl)methyl)-N,N-dimethyl-7-(methylsulfonamido)-5-azaspiro[2.4]heptane-5-carboxamide] | 10 to 100 nM | 90 to 100% |  |  | 
18 | CS(=O)(=O)N[C@@H]1[C@H](Cc2cccc(-c3cc(F)cc(F)c3)c2F)N(C(=O)[C@H]2CCO2)CC12CC2 [Compound 39, N-((6S,7S)-5-((R)-oxetane-2-carbonyl)-6-((2,3′,5′-trifluoro-[1,1′-biphenyl]-3-yl)methyl)-5-azaspiro[2.4]heptan-7-yl)methanesulfonamide] | 1 to 10 nM | 90 to 100% |  |  | 
19 | CC[C@](C)(O)C(=O)N1CC2(CC2)[C@H](NS(=O)(=O)CF)[C@@H]1Cc1cccc(-c2cccc(F)c2)c1F [Compound 376, N-((6S,7S)-6-((2,3′-difluoro-[1,1′-biphenyl]-3-yl)methyl)-5-((S)-2-hydroxy-2-methylbutanoyl)-5-azaspiro[2.4]heptan-7-yl)-1-fluoromethanesulfonamide] | 1 to 10 nM | 90 to 100% |  |  | 
20 | CS(=O)(=O)N[C@@H]1[C@H](Cc2cccc(-c3ccccc3)c2)N(C(=O)[C@H]2CCO2)CC12CC2 [Compound 55, N-((6S,7S)-6-([1,1′-biphenyl]-3-ylmethyl)-5-((R)-oxetane-2-carbonyl)-5-azaspiro[2.4]heptan-7-yl)methanesulfonamide] | 10 to 100 nM | 90 to 100% |  |  | 
21 | O=C(NCC1(F)CC1)N1CC2(CC2)[C@H](NS(=O)(=O)C(F)F)[C@@H]1Cc1cc(F)cc(-c2cc(F)cc(F)c2)c1F [Compound 416, (6S,7S)-7-((difluoromethyl)sulfonamido)-N-((1-fluorocyclopropyl)methyl)-6-((2,3′,5,5′-tetrafluoro-[1,1′-biphenyl]-3-yl)methyl)-5-azaspiro[2.4]heptane-5-carboxamide] | 1 to 10 nM | 90 to 100% |  |  | 
22 | N-((6S,7S)-6-((2-fluoro-[1,1′- biphenyl]-3-yl)methyl)-5-((R)- 2-(fluoromethyl)azetidine-1- carbonyl)-5- azaspiro[2.4]heptan-7- yl)metbanesulfonamide [Compound 314] |  |  |  | A (Emax ranging between 90 and 100) | **** (pEC50 ranging between 8.0 and 9.0)
23 | O=C(NCC1(F)CC1)N1CC2(CC2)[C@H](NS(=O)(=O)C(F)F)[C@@H]1Cc1cc(F)cc(-c2ccccc2)c1F [Compound 417, (6S,7S)-6-(2,5-difluoro-[1,1′-biphenyl]-3-yl)methyl)-7-((difluoromethyl)sulfonamido)-N-((1-fluorocyclopropylmethyl)-5-azaspiro[2.4]heptane-5-carboxamide] | 1 to 10 nM | 90 to 100% |  |  | 
24 | CS(=O)(=O)N[C@@H]1[C@H](Cc2cccc(-c3ccccc3)c2F)N(C(=O)NC2CC(F)(F)C2)CC12CC2 [Compound 83, (6S,7S)-N-(3,3-difluorocyclobutyl)-6-((2-fluoro-[1,1′-biphenyl]-3-yl)methyl)-7-(methylsulfonamido)-5-azaspiro[2.4]heptane-5-carboxamide] | 10 to 100 nM | 90 to 100% |  |  | 
